Data as given in US10464883B2, “Compounds and methods for the treatment of neurodegenerative diseases” (Resilio Therapeutics, LLC, priority 2015, dated 2019).

Test: pH stability of prodrugs of DFMO in PBS buffer (LC/MS/MS)
Type: physicochemical
Procedure: The stability of prodrugs of DFMO to different pH conditions over time was assayed. Prodrugs were reconstituted in dimethylsulfoxide (DMSO), diluted into phosphate buffered saline (PBS) of different pH values, incubated for different lengths of time at room temperature, and then analyzed by LC/MS/MS for changes in the levels of each prodrug. […] Following this initial phase, the (2)-prodrug was reasonably stable over the next 24 hours so that less than 20% of the intact prodrug was lost at pH 3 and 5, and about 60% of the intact material was lost at pH 8 over a day. […] Similar results were obtained with the other prodrugs tested.

intact prodrug lost over the next 24 hours (PBS pH 3, room temperature, 24 hours following initial phase): less than 20%
decrease in the amount of intact, non-degraded prodrug over the first hour of incubation (PBS pH 3, room temperature): about 60%
intact prodrug lost over the next 24 hours (PBS pH 5, room temperature, 24 hours following initial phase): less than 20%
decrease in the amount of intact, non-degraded prodrug over the first hour of incubation (PBS pH 5, room temperature): 30-35%
intact material lost over a day (PBS pH 8, room temperature, 24 hours following initial phase): about 60%
decrease in the amount of intact, non-degraded prodrug over the first hour of incubation (PBS pH 8, room temperature): 30-35%
SMILES: CC(OC(=O)NCCCC(N)(C(=O)O)C(F)F)OC(=O)C(C)C (stereo not drawn) [(2)-prodrug, 2-amino-2-(difluoromethyl)-5-[1-(2-methylpropanoyloxy)ethoxycarbonylamino]pentanoic acid]
